In PubChem BioAssay AID1259407 (Chemical Carcinogenesis Research Information System (CCRIS), 2018):
Active and inactive are the calls of the source. No rule for the calls is given here.

Tested on: CCRIS mutagenicity, Ames/micronucleus/aberration tests
Experiment: CCRIS mutagenicity studies
[1] = Test System: AMES SALMONELLA TYPHIMURIUM, Strain/Indicator: TA98, Metabolic Activation: NONE, Method: PREINCUBATION
[2] = Test System: AMES SALMONELLA TYPHIMURIUM, Strain/Indicator: TA100, Metabolic Activation: NONE, Method: PREINCUBATION
[3] = Test System: AMES SALMONELLA TYPHIMURIUM, Strain/Indicator: TA102, Metabolic Activation: NONE, Method: PREINCUBATION
[4] = Test System: AMES SALMONELLA TYPHIMURIUM, Strain/Indicator: TA104, Metabolic Activation: NONE, Method: PREINCUBATION
[5] = Test System: AMES SALMONELLA TYPHIMURIUM, Strain/Indicator: TA1535, Metabolic Activation: NONE, Method: PREINCUBATION
[6] = Test System: AMES SALMONELLA TYPHIMURIUM, Strain/Indicator: TA1537, Metabolic Activation: NONE, Method: PREINCUBATION

## Cc1c2ccccc2c(C)c2c3c(ccc12)C(=O)C(=O)C=C3
Test System: AMES SALMONELLA TYPHIMURIUM, Strain/Indicator: TA97A, Metabolic Activation: NONE, Method: PREINCUBATION
  mutagenic call: inactive; negative
[1]
  mutagenic call: inactive; negative
[2]
  mutagenic call: inactive; negative
[3]
  mutagenic call: inactive; negative
[4]
  mutagenic call: inactive; negative

## COC(=O)N/N=C/c1c[n+]([O-])c2ccccc2[n+]1[O-]
[1]
  mutagenic call: active; positive
Test System: AMES SALMONELLA TYPHIMURIUM, Strain/Indicator: TA98, Metabolic Activation: S-9, Method: PREINCUBATION
  mutagenic call: active; positive
Test System: E. COLI, Strain/Indicator: WP2 UVRA (PKM101), Metabolic Activation: NONE
  mutagenic call: active; positive
Test System: E. COLI, Strain/Indicator: WP2 UVRA (PKM101), Metabolic Activation: S-9
  mutagenic call: active; positive

## O=[N+]([O-])c1ccc(Oc2ccc(Cl)cc2Cl)cc1
Test System: AMES SALMONELLA TYPHIMURIUM, Strain/Indicator: TA98, Metabolic Activation: S-9, Method: STANDARD PLATE
  mutagenic call: inactive; negative
Test System: AMES SALMONELLA TYPHIMURIUM, Strain/Indicator: TA100, Metabolic Activation: NONE, Method: STANDARD PLATE
  mutagenic call: active; positive
Test System: AMES SALMONELLA TYPHIMURIUM, Strain/Indicator: TA100, Metabolic Activation: S-9, Method: STANDARD PLATE
  mutagenic call: inactive; negative
Test System: AMES SALMONELLA TYPHIMURIUM, Strain/Indicator: TA100, Metabolic Activation: S-9 MIX, Method: STANDARD PLATE
  mutagenic call: active; positive
Test System: AMES SALMONELLA TYPHIMURIUM, Strain/Indicator: YG1021, Metabolic Activation: S-9, Method: STANDARD PLATE
  mutagenic call: inactive; negative
Test System: AMES SALMONELLA TYPHIMURIUM, Strain/Indicator: YG1024, Metabolic Activation: S-9, Method: STANDARD PLATE
  mutagenic call: inactive; negative
Test System: AMES SALMONELLA TYPHIMURIUM, Strain/Indicator: YG1026, Metabolic Activation: S-9, Method: STANDARD PLATE
  mutagenic call: active; positive
Test System: AMES SALMONELLA TYPHIMURIUM, Strain/Indicator: YG1029, Metabolic Activation: S-9, Method: STANDARD PLATE
  mutagenic call: active; positive
Test System: E. COLI, Strain/Indicator: WP2 UVRA, Metabolic Activation: HAMSTER, LIVER, S-9, AROCLOR 1254, Method: STANDARD PLATE
  mutagenic call: inactive; negative
Test System: E. COLI, Strain/Indicator: WP2 UVRA, Metabolic Activation: HAMSTER, LIVER, S-9, Method: STANDARD PLATE
  mutagenic call: inactive; negative
Test System: E. COLI, Strain/Indicator: WP2 UVRA, Metabolic Activation: MOUSE, LIVER, S-9, AROCLOR 1254, Method: STANDARD PLATE
  mutagenic call: inactive; negative
Test System: E. COLI, Strain/Indicator: WP2 UVRA, Metabolic Activation: MOUSE, LIVER, S-9, Method: STANDARD PLATE
  mutagenic call: inactive; negative
Test System: E. COLI, Strain/Indicator: WP2 UVRA, Metabolic Activation: NONE, Method: STANDARD PLATE
  mutagenic call: inactive; negative
Test System: E. COLI, Strain/Indicator: WP2 UVRA, Metabolic Activation: RAT, LIVER, S-9, AROCLOR 1254, Method: STANDARD PLATE
  mutagenic call: inactive; negative
Test System: E. COLI, Strain/Indicator: WP2 UVRA, Metabolic Activation: RAT, LIVER, S-9, Method: STANDARD PLATE
  mutagenic call: inactive; negative
Test System: MOUSE LYMPHOMA, Strain/Indicator: L5178Y (HPRT), Metabolic Activation: NONE, Method: SUSPENSION/PLATE
  mutagenic call: inactive; negative
Test System: MOUSE LYMPHOMA, Strain/Indicator: L5178Y (TK+/TK-), Metabolic Activation: NONE, Method: SUSPENSION/PLATE
  mutagenic call: inactive; negative

## [Cl][Hg].[Cl][Hg]
End Point: IN VIVO MICRONUCLEUS, Test System: BONE MARROW, Species: HAMSTER, Strain/Sex: SYRIAN/MALE, Route: INTRAPERITONEAL
  mutagenic call: inactive; negative

## O=C(Cl)c1ccc(Cl)cc1
[1]
  mutagenic call: inactive; negative
Test System: AMES SALMONELLA TYPHIMURIUM, Strain/Indicator: TA98, Metabolic Activation: RAT LIVER S-9, PHENOBARBITAL AND BETA-NAPHTHOFLAVONE, Method: PREINCUBATION
  mutagenic call: inactive; negative
[2]
  mutagenic call: inactive; negative
Test System: AMES SALMONELLA TYPHIMURIUM, Strain/Indicator: TA100, Metabolic Activation: RAT LIVER S-9, PHENOBARBITAL AND BETA-NAPHTHOFLAVONE, Method: PREINCUBATION
  mutagenic call: inactive; negative
[3]
  mutagenic call: inactive; negative
Test System: AMES SALMONELLA TYPHIMURIUM, Strain/Indicator: TA102, Metabolic Activation: RAT LIVER S-9, PHENOBARBITAL AND BETA-NAPHTHOFLAVONE, Method: PREINCUBATION
  mutagenic call: inactive; negative
[4]
  mutagenic call: inactive; negative
Test System: AMES SALMONELLA TYPHIMURIUM, Strain/Indicator: TA104, Metabolic Activation: RAT LIVER S-9, PHENOBARBITAL AND BETA-NAPHTHOFLAVONE, Method: PREINCUBATION
  mutagenic call: inactive; negative
[5]
  mutagenic call: inactive; negative
Test System: AMES SALMONELLA TYPHIMURIUM, Strain/Indicator: TA1535, Metabolic Activation: RAT LIVER S-9, PHENOBARBITAL AND BETA-NAPHTHOFLAVONE, Method: PREINCUBATION
  mutagenic call: inactive; negative
[6]
  mutagenic call: inactive; negative
Test System: AMES SALMONELLA TYPHIMURIUM, Strain/Indicator: TA1537, Metabolic Activation: RAT LIVER S-9, PHENOBARBITAL AND BETA-NAPHTHOFLAVONE, Method: PREINCUBATION
  mutagenic call: inactive; negative
Test System: E.COLI, Strain/Indicator: WP2UVRA/PKM101, Metabolic Activation: NONE, Method: PREINCUBATION
  mutagenic call: inactive; negative
Test System: E.COLI, Strain/Indicator: WP2UVRA/PKM101, Metabolic Activation: RAT LIVER S-9, PHENOBARBITAL AND BETA-NAPHTHOFLAVONE, Method: PREINCUBATION
  mutagenic call: inactive; negative
Test System: E.COLI, Strain/Indicator: WP2UVRA, Metabolic Activation: NONE, Method: PREINCUBATION
  mutagenic call: inactive; negative
Test System: E.COLI, Strain/Indicator: WP2UVRA, Metabolic Activation: RAT LIVER S-9, PHENOBARBITAL AND BETA-NAPHTHOFLAVONE, Method: PREINCUBATION
  mutagenic call: inactive; negative

## CCCCCCCCCCOC[N+](C)(C)CCCCCCCC
Test System: BACILLUS SUBTILIS, Strain/Indicator: H17/REC, Metabolic Activation: NONE, Method: STANDARD PLATE
  mutagenic call: inactive; negative
Test System: BACILLUS SUBTILIS, Strain/Indicator: M45, Metabolic Activation: NONE, Method: STANDARD PLATE
  mutagenic call: inactive; negative

## CC(=O)c1cc(NC(=O)Nc2ccc(OCC(O)CNC(C)(C)C)c(C(C)=O)c2)ccc1OCC(O)CNC(C)(C)C (stereo unspecified)
[1]
  mutagenic call: inactive; negative
Test System: AMES SALMONELLA TYPHIMURIUM, Strain/Indicator: TA98, Metabolic Activation: RAT, LIVER, S-9, PHENOBARBITAL AND 5,6-BENZOFLAVONE (10 OR 50 µL/PLATE), Method: PREINCUBATION
  mutagenic call: inactive; negative
[2]
  mutagenic call: inactive; negative
Test System: AMES SALMONELLA TYPHIMURIUM, Strain/Indicator: TA100, Metabolic Activation: RAT, LIVER, S-9, PHENOBARBITAL AND 5,6-BENZOFLAVONE (10 OR 50 µL/PLATE), Method: PREINCUBATION
  mutagenic call: inactive; negative
[5]
  mutagenic call: inactive; negative
[6]
  mutagenic call: inactive; negative
Test System: AMES SALMONELLA TYPHIMURIUM, Strain/Indicator: TA1537, Metabolic Activation: RAT, LIVER, S-9, PHENOBARBITAL AND 5,6-BENZOFLAVONE (10 OR 50 µL/PLATE), Method: PREINCUBATION
  mutagenic call: inactive; negative
Test System: E. COLI, Strain/Indicator: WP2 UVRA, Metabolic Activation: NONE, Method: PREINCUBATION
  mutagenic call: inactive; negative
Test System: E. COLI, Strain/Indicator: WP2 UVRA, Metabolic Activation: RAT, LIVER, S-9, PHENOBARBITAL AND 5,6-BENZOFLAVONE (10 OR 50 µL/PLATE), Method: PREINCUBATION
  mutagenic call: inactive; negative

## CC(=O)OC[C@@]1(O)CC23CC[C@@H]4c5ccoc5C=C[C@@]4(C)[C@@H]2CC[C@@H]1C3
Test System: AMES SALMONELLA TYPHIMURIUM, Strain/Indicator: TM677, Metabolic Activation: NONE, Method: PREINCUBATION
  mutagenic call: inactive; negative
Test System: AMES SALMONELLA TYPHIMURIUM, Strain/Indicator: TM677, Metabolic Activation: RAT, LIVER, S-9, AROCLOR 1254, Method: PREINCUBATION
  mutagenic call: inactive; negative
